Laboratory results taken from PMC11898738 (mBio, 2025).

Tests used:
BbPMI = molecular target: T1, BbPMI (Borreliella burgdorferi, UniProt O51368); experiment: coupled PGI/G6PDH assay, NADPH at […] nm; format: biochemical
T1 construct: gene manA

type IV collagen = type IV collagen (UniProt P02462 173-1669; P08572 184-1712); experiment: MST; BbPMI labeled with RED-NHS dye at constant 5 nM; serial dilutions of collagen IV or controls; PBS + 0.05% Tween-20; 15 minutes at RT; standard capillaries, 10% excitation, 40% MST power; T-Jump analysis; settings: both partners purified

| Molecule | IC50 (BbPMI) [nM] | Kd (type IV collagen) [nM] |
| --- | --- | --- |
| COc1ccc(-n2sc3ccc(F)cc3c2=O)cc1 [NCGC00871021-01] | ~500 | – |
| O=c1c2ccc(F)cc2sn1-c1ccccc1 [NCGC00871019-01] | ~500 | – |
| Cc1ccc(C)c(-n2sc3cc(F)ccc3c2=O)c1 [MLS0315771, 2-(2,5-dimethylphenyl)-6-fluorobenzo[d]isothiazol-3(2H)-one] | 600 to 900 | – |
| Cc1ccc(C)c(-n2sc3ccc(F)cc3c2=O)c1 [NCGC00871020-01] | ~500 | – |
| recombinant BbPMI labeled with RED-NHS dye (BbPMI-NT647) (enzyme, labeled using RED-NHS dye (NT647)) MNNEDNIFLMKNNIKEYDWGGINFIPNLLGDKIDGKPKAEMWLGAHKTFSSKILYKNEYVLLSDFLEDHKELLGCNDEFPFLLKVLSANKPLSIQIHPSKDIALKGYESENNKGIDINDPKRTYKDKNPKIELIYALSDFYALKGFLPLDEIKKIYEILELNFDFQSHKDFVKTIFDLQMYELEKIIEKILKNLDLIDNFRGYWFNEIYNIYGIDVGLLVFLGMNILKLKPGEVVYTNSQEVHAYLKGDCIELMTNSDNVIRAGLTTKYIDKDEMLRVGQFEEGKLSFLNPDFQDNFSVFRLPNTNLKLIQKKINENICINRNSAMVLLVLNGCVSINKSLNLKKGESIFIGKKAENLFIDGDGEAFIAGFN | – | 128 ± 45.1 |
